The source of these data is ChEMBL document CHEMBL3822368, “Further optimization of the M1 PAM VU0453595: Discovery of novel heterobicyclic core motifs with improved CNS penetration” (Bioorg Med Chem Lett, 2016).

Data set [1] deals with T1, Muscarinic acetylcholine receptor M1 (Rattus norvegicus, UniProt P08482).
T1 sequence (P08482 whole entry): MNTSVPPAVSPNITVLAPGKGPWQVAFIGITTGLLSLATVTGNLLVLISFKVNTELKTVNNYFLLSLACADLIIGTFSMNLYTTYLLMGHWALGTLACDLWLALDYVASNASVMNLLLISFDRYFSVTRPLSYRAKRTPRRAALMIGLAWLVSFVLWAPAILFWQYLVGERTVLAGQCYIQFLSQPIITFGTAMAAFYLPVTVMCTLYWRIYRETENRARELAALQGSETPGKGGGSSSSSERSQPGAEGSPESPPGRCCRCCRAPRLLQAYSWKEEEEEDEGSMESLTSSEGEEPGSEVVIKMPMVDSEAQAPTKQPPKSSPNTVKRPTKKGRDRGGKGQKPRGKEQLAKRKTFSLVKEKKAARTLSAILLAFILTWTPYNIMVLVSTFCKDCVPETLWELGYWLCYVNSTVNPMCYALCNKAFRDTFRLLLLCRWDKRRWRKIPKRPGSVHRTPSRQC
Description: Positive allosteric modulation at rat muscarinic acetylcholine receptor M1 expressed in CHO cells assessed as potentiation of acetylcholine-induced calcium mobilization. It is filed as functional, cell-based.

Data set [2] in a line: Brain to plasma partition coefficient in Sprague-Dawley rat at 0.20 to 0.25 mg/kg, iv administered through cassette dosing after 0.25 hrs. The note with it: for Kp at 0.25 h: Sprague-Dawley, brain and plasma. It is filed as ADME, organism-based.
A short description of data set [3]: Unbound brain to plasma partition coefficient in Sprague-Dawley rat at 0.20 to 0.25 mg/kg, iv administered through cassette dosing after 0.25 hrs. It is filed as ADME, organism-based. Conditions: brain and plasma; for Kp uu at 0.25 h: read-out: K(p,uu,brain).
A short description of data set [4]: Fraction unbound in rat plasma. It is filed as ADME, cell-free.
Data set [5] is described as follows: Fraction unbound in human plasma. It is filed as ADME, cell-free.
For data set [6], the system named is CHO. Description: Selectivity ratio of EC50 for human muscarinic acetylcholine receptor M1 to EC50 for rat muscarinic acetylcholine receptor M1 expressed in CHO cells. Format: cell-based.
Data set [7] has as its target T2, Muscarinic acetylcholine receptor M1 (Rattus norvegicus) (UniProt P08482).
T2 sequence (whole entry): T1 sequence (P08482 whole entry)
In words: Positive allosteric modulation at rat muscarinic acetylcholine receptor M1 expressed in CHO cells assessed as potentiation of acetylcholine-induced calcium mobilization in relative to acetylcholine. Format: functional, cell-based. (In general: Calcium flux is commonly read through the fluorescence of an indicator in the cells.)

Data set [8] deals with T3, Muscarinic acetylcholine receptor M1 (Homo sapiens, UniProt P11229).
T3 sequence (P11229 whole entry): T1 sequence (P08482 whole entry) with V5A, S254T, S309P, K320R, G337A, V413I
In words: Positive allosteric modulation at human muscarinic acetylcholine receptor M1 expressed in CHO cells assessed as potentiation of acetylcholine-induced calcium mobilization. It is filed as functional, cell-based.

The target of data set [9] is T3, Muscarinic acetylcholine receptor M1. Description: Positive allosteric modulation at human muscarinic acetylcholine receptor M1 assessed as effect on beta-arrestin recruitment. A general note: Recruitment of arrestin is a read-out of receptor activation apart from second messengers.
The target is the same in data set [10]. Description: Positive allosteric modulation at human muscarinic acetylcholine receptor M1 assessed as effect on receptor internalization.
Data set [11] addresses T4, Muscarinic acetylcholine receptor M1 (Homo sapiens) (UniProt P11229).
T4 sequence (whole entry): T1 sequence (P08482 whole entry) with V5A, S254T, S309P, K320R, G337A, V413I
Description: Positive allosteric modulation at human muscarinic acetylcholine receptor M1 expressed in CHO cells assessed as potentiation of acetylcholine-induced calcium mobilization relative to acetylcholine. Format: functional, cell-based.

Data set [12] concerns the target T4, Muscarinic acetylcholine receptor M1 (Homo sapiens). Description: Positive allosteric modulation at human muscarinic acetylcholine receptor M1 assessed as effect on beta-arrestin recruitment relative to acetylcholine.
The nature of data set [13]: Fraction unbound in rat brain homogenate. It is filed as ADME, tissue-based.

By EC50 is commonly meant the midpoint of the concentration-response curve. What is called Kp is the ratio of the level in a tissue or fluid to that in plasma or blood. The fraction unbound is free concentration divided by total concentration. The low end stands for extensive binding, the high end for weak binding.

Substitutions are numbered along the chain they refer to.

Regarding `O=c1c2ccncc2ncn1Cc1c(F)cc(-c2ccc3cnccc3c2)cc1F`, the EC50 in [1] came to 6.1 µM. The Kp at 0.25 h in [2] was determined as 3.1. In data set [3], this molecule gave a Kpuu at 0.25 h of 2.7. Also, the fraction unbound in data set [4] and in data set [5] was 0.03 in each case.
As to `Cn1cc2cc(-c3cc(F)c(Cn4c(=O)cnc5ncccc54)c(F)c3)ccc2n1`, in data set [1], the EC50 is 2.8 µM. Moreover, the Kp at 0.25 h in data set [2] was 1.64. Besides, in data set [3], the Kpuu at 0.25 h is 1.1. The fraction unbound in data set [4] and in [5] was 0.04 each time.
On to `Cn1cc2c(-c3cc(F)c(Cn4cnc5ccccc5c4=O)c(F)c3)cccc2n1`, for which, in data set [6], the Ratio EC50 was 2. For the same molecule, the results for the EC50 in data set [1] and in [8] were 4.7 µM and greater than 10 µM, respectively. In addition, the %max in [7] was 45%. The Kp at 0.25 h in data set [2] was found to be 0.79. Further, in data set [3], the Kp uu at 0.25 h came out at 0.32. For the same molecule, the fraction unbound in data set [4] and in data set [5] was 0.01 throughout.
On to `Cn1cnc2ccc(-c3cc(F)c(Cn4cnc5cnccc5c4=O)c(F)c3)cc21`, for which, in data set [1], the EC50 is 5.3 µM. In addition, the Kp result in data set [2] (brain, 0.25 h, BLD = below limit of detection) is on record as “BLD”. Besides, the fraction unbound was determined as 0.04 in data set [4] and 0.06 in [5].
`Cn1cc2c(-c3cc(F)c(CN4CCc5ncccc5C4=O)c(F)c3)cccc2n1`: in [6], the Ratio EC50 was determined as 2. The EC50 is 4.3 µM in data set [1] and greater than 10 µM in [8]. Also, in data set [7], the %max was determined as 52%. The same molecule yielded a Kp at 0.25 h in data set [2] of 0.52. The Kp uu at 0.25 h in [3] worked out at 0.49. The fraction unbound in data set [4] and in [5] was 0.01 each time.
With `Cn1cc2c(-c3cc(F)c(CN4CCn5nccc5C4=O)c(F)c3)cccc2n1`, the EC50 in data set [1] was greater than 10 µM.
As to `Cn1cc2c(-c3cc(F)c(CN4C=CC5=NCCN5C4=O)c(F)c3)cccc2n1`, in data set [6], the Ratio EC50 turned out to be 2. In addition, the half-maximal effective concentration (EC50) in data set [1] is 1.7 µM; in data set [8], greater than 10 µM. The %max in data set [7] stood at 50%. Also, in data set [2], the Kp at 0.25 h stood at 0.35. Also, the Kp uu at 0.25 h in [3] came to 0.3. In addition, the fraction unbound came to 0.08 in [4] and 0.04 in data set [5].
In the case of `Cn1cc(-c2ccc(CN3Cc4ncccc4C3=O)c(F)c2)cn1`, the EC50 in [9] is 2.6 µM; in data set [10], greater than 10 µM; in data set [1], 3.2 µM; in [8] it was 1.9 µM. The Ratio EC50 in data set [6] is 3. For the same molecule, the %max in data set [7] is 75%; in [11] it was 79%; in [12], 57%. The molecule also gave a Kp at 0.25 h in data set [2] of 0.3.
Consider `Cn1cc2cc(-c3cc(F)c(CN4CCn5nccc5C4=O)c(F)c3)ccc2n1`, for which the EC50 in data set [1] was found to be 1.7 µM. In data set [7], the %max worked out at 50%. This molecule gave a Kp at 0.25 h in data set [2] of 0.4. The Kpuu at 0.25 h in data set [3] came to 0.7. Besides, the fraction unbound in data set [13] is 0.098; in [4] it was 0.06; in [5], 0.05.
On to `Cn1cc2c(-c3cc(F)c(Cn4cnc5cnccc5c4=O)c(F)c3)cccc2n1`, for which the EC50 in data set [9] is 0.98 µM; in [10], greater than 10 µM; in data set [1] it was 4.7 µM; in data set [8] it was 5.3 µM. Also, in [6], the Ratio EC50 amounted to 2. In addition, the values for the %max in data set [7], in data set [11] and in [12] were 73%, 65% and 33%, respectively. Also, the Kp at 0.25 h in data set [2] was determined as 0.77. The Kp uu at 0.25 h in data set [3] turned out to be 0.6. The fraction unbound in data set [4] and in data set [5] was 0.01 throughout.
Regarding `Cn1cc2c(-c3cc(F)c(Cn4c(=O)cnc5ccccc54)c(F)c3)cccc2n1`, in data set [6], the Ratio EC50 amounted to 2. Further, the concentration for a half-maximal effect (EC50) in data set [1] was 4.9 µM; in [8], greater than 10 µM. Moreover, the %max in data set [7] was 67%. The Kp at 0.25 h in data set [2] was 2.16. Moreover, the Kp uu at 0.25 h in [3] was 0.77. The fraction unbound in data set [4] and in [5] was 0.01 each time.
